# Test results published in a melting point compilation (Tetko et al.).
row,Structure (SMILES),melting point
1,Cc1ccc2[nH]cnc2c1C,169 to 171 °C
2,O=C(O)C1CCN(C(=O)c2ccoc2)CC1,103 to 105 °C
3,COc1cc(C(C)=O)ccc1OCCCC(=O)O,163 to 165 °C
4,Nc1nonc1C(=O)N1CCCC1,192 to 194 °C
5,NC(=O)NCCCc1ccccc1,137 to 139 °C
6,COc1cc(CC#N)ccc1[N+](=O)[O-],84 to 86 °C
7,Cc1nc(C)c(-c2csc(N)n2)s1,125 to 127 °C
8,CCNC(=O)c1ccc(NC2CCOCC2)c(C)c1,195 to 197 °C
9,CC(C)(C)OC(=O)NCCC(=O)NN,104 to 106 °C
10,O=C(CC(=O)c1ccccc1)Nc1ccccc1,107 to 109 °C
11,COc1ccccc1NC(=O)c1ccc(NC(=O)CCCl)cc1,193 to 195 °C
12,CC(NC(=O)c1ccc(Cl)cc1)C(=O)O (stereo not drawn),158 to 160 °C
13,C#CCNC(=O)Nc1cc(C)on1,163 to 165 °C
14,CC(Cl)C(=O)Nc1c(F)c(F)c(F)c(F)c1F (stereo not drawn),123 to 125 °C
15,CC1(C(=O)O)CCCCN1C(=O)c1ccccc1 (stereo not drawn),187 to 189 °C
16,CC(C)(c1ccccc1)c1nnc(N)s1,149 to 151 °C
17,CC1Cc2ccccc2N1Cc1ccoc1C(=O)O (stereo not drawn),170 to 172 °C
18,CCOC(=O)c1oc2c(c1C)C(=O)CCC2,104 to 106 °C
19,CCN(c1ccccc1)S(=O)(=O)c1ccc(Cl)c(C(=O)O)c1,128 to 130 °C
20,Cc1[nH]nc(C(N)=O)c1N,219 to 221 °C
21,Nc1cccc(Cn2cnc3ccccc32)c1,168 to 170 °C
22,O=Cc1ccc(-c2ccccc2)s1,90 to 92 °C
23,CC(O)C1CCNCC1 (stereo not drawn),68 to 70 °C
24,CS(=O)(=O)N1CCc2cc(C(=O)CCl)ccc21,137 to 139 °C
25,CCN(c1ccccc1)S(=O)(=O)c1ccc(Cl)nc1,81 to 83 °C

row,Structure (SMILES),melting point
1,O=C(O)CCCc1nc(-c2ccc(Cl)cc2)no1,108 to 110 °C
2,COCC(=O)NC(C)C(=O)O (stereo not drawn),108 to 110 °C
3,Cc1cc(-c2cc(C(=O)O)c3c(C)noc3n2)c(C)o1,266 to 268 °C
4,CCCc1nonc1N,29 to 31 °C
5,Sc1n[nH]c(-c2ccccn2)n1,279 to 281 °C
6,CSc1cccc(N)c1C,44 to 46 °C
7,Cc1nc2ccccc2cc1C(=O)O,243 to 245 °C
8,Nc1ccccc1NC(=O)c1ccncc1,179 to 181 °C
9,COC(=O)C(C)(O)c1ccncc1 (stereo not drawn),104 to 106 °C
10,Cc1cccc2c3c([nH]c12)C(N)CCC3 (stereo not drawn),130 to 132 °C
11,O=C(O)c1ccccc1COc1ccccc1,126 to 128 °C
12,Cc1ccsc1-c1nnc(N)[nH]1,189 to 191 °C
13,Nc1ccc(CCn2cc(Br)cn2)cc1,65 to 67 °C
14,COc1cc(C)sc1C(=O)O,159 to 161 °C
15,NNC(=O)c1cccc2cccnc12,88 to 90 °C
16,COc1ccc(-n2ccc(C(=O)O)n2)cc1,182 to 184 °C
17,COc1nc(N(C)C)sc1C=O,69 to 71 °C
18,NC(=O)[C@H]1CCCC[C@H]1C(=O)O,169 to 171 °C
19,NC(=O)c1ccsc1N,160 to 162 °C
20,FC(F)n1ccnc1CN1CCNCC1,73 to 75 °C
21,CCOC(=O)c1cnn(-c2nc3ccccc3s2)c1N,137 to 139 °C
22,O=C(O)c1ccc(COc2ccc(F)cc2)o1,165 to 167 °C
23,O=C(O)C1CCCN(S(=O)(=O)c2ccc([N+](=O)[O-])cc2)C1 (stereo not drawn),221 to 223 °C
24,ICc1cccc2cccnc12,79 to 81 °C
25,O=C(O)Cc1csc(-c2cc(Br)cs2)n1,129 to 131 °C

row,Structure (SMILES),melting point
1,Cc1ccc(C(=O)c2c(N)sc3c2CCC3)cc1,153 to 157 °C
2,O=C(O)c1cccc(S(=O)(=O)NCC2CCCO2)c1 (stereo not drawn),157 to 161 °C
3,CS(=O)(=O)c1ccc(OCCN)cc1,63 to 65 °C
4,CN(C)C(=O)COc1ccc(C#N)cc1,110 to 112 °C
5,O=C(O)CCc1nc2ccccc2n1-c1ccccc1,232 to 234 °C
6,CC(Cl)c1cn(-c2ccccc2)nn1 (stereo not drawn),69 to 71 °C
7,O=Cc1cc(Cl)cc2c1OCC2,85 to 87 °C
8,CCn1nc(C(F)(F)F)c(C(=O)O)c1C(F)(F)F,89 to 91 °C
9,O=c1ccc([N+](=O)[O-])cn1CCCl,130 to 132 °C
10,O=C(O)CCCNC(=O)c1ccsc1,235 to 237 °C
11,Fc1cc(F)cc(-c2n[nH]c(S)n2)c1,279 to 281 °C
12,CN(C)C(=O)c1cc(N)ccc1F,104 to 106 °C
13,O=C(O)c1cnc2c(cnn2C2CCCC2)c1,141 to 143 °C
14,O=S(=O)(Cl)c1ccc(OCc2ccccc2)cc1,95 to 97 °C
15,Cc1cc(C=O)c(C)n1-c1cccc([N+](=O)[O-])c1,149 to 151 °C
16,CC(C)C(C(=O)O)n1cncn1 (stereo not drawn),177 to 179 °C
17,NCCN1C(=O)Cc2ccccc21,88 to 90 °C
18,CS(=O)(=O)Nc1ccc(O)cc1,158 to 160 °C
19,O=C(CCl)NCC(=O)c1ccccc1Br,103 to 105 °C
20,CC1(C)C(=O)NCCN1Cc1ccccc1,212 to 214 °C
21,CS(=O)(=O)c1ccc(F)cc1[N+](=O)[O-],148 to 150 °C
22,O=C(Nc1ccsc1C(=O)O)c1ccoc1,207 to 209 °C
23,Cc1ccc(C(=O)Nc2cccc(CN)c2)cc1,131 to 133 °C
